The test system of data set [1] is M. tuberculosis H37Rv. As to the kind of experiment: MBC assay with H37Rv. Particulars: Mycobacterium tuberculosis, 504 h; performed with H37Rv; concentration that inhibits ≥ 99.9% of the initial bacterial inoculum; 3 weeks on 7H10 agar at 37°C. It counts as cell-based. As for the experimental part: The MBC assay with H37Rv was performed as an adjunct to the MIC assay and was used to determine the concentration of drug that is lethal to the target bacterium in vitro. A small aliquot (i.e., 10 µl) was removed from appropriate dilutions in the 96-well plate used to determine the MIC value with subsequent streaking on 7H10 agar plates. Five wells were selected, representing the well yielding the MIC value and 2 wells above and below the well that yielded the MIC value. After 3 weeks of incubation at 37°C, the agar plates were inspected for the presence or absence of growth. The MBC value is the concentration in µg/ml that inhibits ≥ 99.9% of the initial bacterial inoculum. Antimicrobials are usually regarded as bactericidal if the MBC is no more than four times the MIC. while the bacteriostatic agents have MIC values that are much lower than the MBC.

Data set [2] concerns M. tuberculosis H37Rv. As to the kind of experiment: Resazurin MIC assay, pan-sensitive strain. Type of data set: cell-based. Conditions: Mycobacterium tuberculosis, 48 h. In general terms: Resazurin is reduced to fluorescent resorufin, in cell work by metabolically active cells.
Data set [3] can be described thus: Precipitation noted during the MIC assay. It counts as physicochemical. Particulars: observed in the MIC assay plates, 7H9 medium. As for the experimental part: Stock solutions were prepared at 3.2 mg/ml which were then diluted as indicated below: 1. 20 µl of the 3.2 mg/ml stock of the test compound were added to a 96-well microtiter plate. 2. 2-fold dilutions were made by the addition of 20 µl of diluent.
3. Each dilution was further diluted 1:10 in sterile water (10 µl of dilution to 90 µl of sterile water). Note: The additional 10-fold dilution in water is required when DMSO is used as solvent to minimize toxicity to the bacteria. For uniformity in the assay procedure, this dilution step was used even if water or other solvents were used.
The following steps are followed in preparing the 96-wcll plates: • 1. 6.25 µl of each dilution were transferred to duplicate 96-well test plates. • 2. 93.75 µl of the cell suspension (∼ 10^4 bacteria) in 7H9 medium were added to the test plates. • 3. Positive, negative, sterility and resazurin controls were tested: • a. Positive controls include: appropriate antibiotics for each resistant strain and rifampicin and isoniazid for 113 7Rv • b. Negative controls include: • i. cell culture with solvent and water • i.i. cell culture only • c. Sterility controls include: • i. medium only • ii. medium with solvent and water • d. […] This control plate is needed to verify whether the compound reacts with resazurin that could possibly elicit fluorescence. • 4. […]

Setting [4] is: Table 3, standard test strain H37Rv, read-out: MIC Value (µg/ml) H37Rv*.
Where [5] appears, read: H37RV, Table 2, Resazurin MIC assay, […], read-out: MIC H37Rv.

≈ marks a conversion by molar mass, not a printed value. Read-outs that look alike come from different tables or passages of the source.

The term MBC denotes the lowest tested concentration that kills the bacteria rather than only halting them. For the molecule `O=C1Nc2ccc(OC(F)(F)F)cc2C1=NNC(=O)c1ccc([N+](=O)[O-])o1` [Compound 3e], in the data set on M. tuberculosis H37Rv [1], the MBC turned out to be 2.5 µg/mL (≈ 6.51 µM). The MIC with M. tuberculosis H37Rv [2] (setting [4]) and with M. tuberculosis H37Rv [2] (setting [5]) was 2.5 µg/mL (≈ 6.51 µM) each time.
Consider `NNC(=O)c1ccncc1` [Isoniazid, reference compound], for which the MIC in the data set with M. tuberculosis H37Rv [2] (setting [4]) and with M. tuberculosis H37Rv [2] (setting [5]) was 0.063 µg/mL (≈ 0.459 µM) each time.
For the molecule `O=C1Nc2ccc(F)cc2C1=NNC(=O)c1ccncc1` [Compound 3b, reference compound], the MIC with M. tuberculosis H37Rv [2] (setting [5]) is 10 µg/mL (≈ 35.2 µM).
In turn, `O=C1Nc2ccc(Cl)cc2C1=NNC(=O)c1ccncc1` [Compound 3a] gave an MBC with M. tuberculosis H37Rv [1] of 1.25 µg/mL (≈ 4.16 µM). The “Comments (precipitation)” value in data set [3] was “Precipitation observed at 10 µg/ml”. In addition, the MIC with M. tuberculosis H37Rv [2] (setting [4]) and in the data set with M. tuberculosis H37Rv [2] (setting [5]) was 1.25 µg/mL (≈ 4.16 µM) in each case.
For `CO[C@H]1/C=C/O[C@@]2(C)Oc3c(C)c(O)c4c(O)c(c(/C=N/N5CCN(C)CC5)c(O)c4c3C2=O)NC(=O)/C(C)=C\C=C\[C@H](C)[C@H](O)[C@@H](C)[C@@H](O)[C@@H](C)[C@H](OC(C)=O)[C@@H]1C` [Rifampin, reference compound], the MIC turned out to be 0.0125 µg/mL (≈ 0.0152 µM) in the data set with M. tuberculosis H37Rv [2] (setting [4]) and 0.0031 µg/mL (≈ 0.00377 µM) in the data set on M. tuberculosis H37Rv [2] (setting [5]).
With `O=C1Nc2ccc([N+](=O)[O-])cc2C1=NNC(=O)c1ccncc1` [Compound 3c], in the data set on M. tuberculosis H37Rv [1], the MBC came out at 0.31 µg/mL (≈ 0.996 µM). Moreover, the MIC in the data set with M. tuberculosis H37Rv [2] (setting [4]) and in the data set on M. tuberculosis H37Rv [2] (setting [5]) was 0.156 µg/mL (≈ 0.501 µM) each time.
As to `O=C1Nc2ccc(F)cc2C1=NNC(=O)c1ccc([N+](=O)[O-])o1` [Compound 3d], the MIC with M. tuberculosis H37Rv [2] (setting [5]) is 5 µg/mL (≈ 15.7 µM).
The same measure, in the same setting: under `O=C(NN=C1C(=O)N(Cc2ccccc2)c2ccc(F)cc21)c1ccc([N+](=O)[O-])o1` [Compound 3i] stands 0.156 µg/mL (≈ 0.382 µM).
`O=C(NN=C1C(=O)N(Cc2ccccc2)c2ccccc21)c1ccc([N+](=O)[O-])o1` [Compound 3g]: in the data set on M. tuberculosis H37Rv [1], the minimal bactericidal concentration (MBC) came to 0.156 µg/mL (≈ 0.4 µM). Also, in data set [3], the “Comments (precipitation)” value is listed as “Precipitation observed at 10 µg/ml”. In addition, the MIC with M. tuberculosis H37Rv [2] (setting [4]) and with M. tuberculosis H37Rv [2] (setting [5]) was 0.156 µg/mL (≈ 0.4 µM) each time.
For `O=C(NN=C1C(=O)N(Cc2ccccc2)c2ccc(Cl)cc21)c1ccc([N+](=O)[O-])o1` [Compound 3h], in the data set with M. tuberculosis H37Rv [2] (setting [5]), the MIC was found to be 0.312 µg/mL (≈ 0.734 µM).
The same measure, in the same setting: then `Cc1ccc2c(c1)C(=NNC(=O)c1ccc([N+](=O)[O-])o1)C(=O)N2Cc1ccccc1` [Compound 3j], with 1.25 µg/mL (≈ 3.09 µM).
Still for that read-out and setting: under `O=C(NN=C1C(=O)N(c2ccccc2)c2ccccc21)c1ccc([N+](=O)[O-])o1` [Compound 3f] stands 5 µg/mL (≈ 13.3 µM).
